The values below come from patent publication US10941132B2, “Pyrazole derivatives” (HUA MEDICINE (SHANGHAI) Ltd., priority 2016, dated 2021).

This assay deals with T1, recombinant rat mGluR5 (Rattus norvegicus, UniProt P31424).
T1 construct: expressed in transfected cells
Briefly: Functional calcium flux assay (FLIPR), antagonist evaluation against glutamate-evoked [Ca2+]i increase. The class given is cell-based. The note with it: HEK293 cells stably expressing recombinant rat mGluR5, 15 min incubation of test compound, then submaximal glutamate. How it is done:
Functional Calcium Clux Assay Methodology
For functional assays, HEK293 cells stably expressing recombinant rat mGluR5 were seeded in 384-well plates and dye loaded using Fluo-8. Cells were then washed to remove the un-incorporated dye. Antagonist evaluation was performed following a 15 min incubation of the test compound followed by the addition of submaximal concentration of glutamate. Intracellular calcium ([Ca^2+]i) measurements were performed using a fluorometric imaging plate reader (FLIPR, Molecular Devices). The glutamate-evoked increase in [Ca^2′]i in the presence of the test compounds was compared to the response to glutamate alone (the positive control). Antagonist inhibition curves were fitted with a 4-parameter logistic equation giving IC50 values, and Hill coefficients using an iterative nonlinear curve fitting algorithm.
The tables below provide IC50 data in this assay. In the activity column, A=IC50>1,000 and ≤5,000 nM; B=IC50>500 and ≤1,000 nM and C=IC50≤500 nM.

The mark [1] stands for this setting: Table 1, read-out: IC50 value (FLIPR assay).
Setting [2] is: Table 2, read-out: IC50 (FLIPR assay).

Where two headings read alike, the source gives them in different places.

T1 sequence (P31424 21-1203): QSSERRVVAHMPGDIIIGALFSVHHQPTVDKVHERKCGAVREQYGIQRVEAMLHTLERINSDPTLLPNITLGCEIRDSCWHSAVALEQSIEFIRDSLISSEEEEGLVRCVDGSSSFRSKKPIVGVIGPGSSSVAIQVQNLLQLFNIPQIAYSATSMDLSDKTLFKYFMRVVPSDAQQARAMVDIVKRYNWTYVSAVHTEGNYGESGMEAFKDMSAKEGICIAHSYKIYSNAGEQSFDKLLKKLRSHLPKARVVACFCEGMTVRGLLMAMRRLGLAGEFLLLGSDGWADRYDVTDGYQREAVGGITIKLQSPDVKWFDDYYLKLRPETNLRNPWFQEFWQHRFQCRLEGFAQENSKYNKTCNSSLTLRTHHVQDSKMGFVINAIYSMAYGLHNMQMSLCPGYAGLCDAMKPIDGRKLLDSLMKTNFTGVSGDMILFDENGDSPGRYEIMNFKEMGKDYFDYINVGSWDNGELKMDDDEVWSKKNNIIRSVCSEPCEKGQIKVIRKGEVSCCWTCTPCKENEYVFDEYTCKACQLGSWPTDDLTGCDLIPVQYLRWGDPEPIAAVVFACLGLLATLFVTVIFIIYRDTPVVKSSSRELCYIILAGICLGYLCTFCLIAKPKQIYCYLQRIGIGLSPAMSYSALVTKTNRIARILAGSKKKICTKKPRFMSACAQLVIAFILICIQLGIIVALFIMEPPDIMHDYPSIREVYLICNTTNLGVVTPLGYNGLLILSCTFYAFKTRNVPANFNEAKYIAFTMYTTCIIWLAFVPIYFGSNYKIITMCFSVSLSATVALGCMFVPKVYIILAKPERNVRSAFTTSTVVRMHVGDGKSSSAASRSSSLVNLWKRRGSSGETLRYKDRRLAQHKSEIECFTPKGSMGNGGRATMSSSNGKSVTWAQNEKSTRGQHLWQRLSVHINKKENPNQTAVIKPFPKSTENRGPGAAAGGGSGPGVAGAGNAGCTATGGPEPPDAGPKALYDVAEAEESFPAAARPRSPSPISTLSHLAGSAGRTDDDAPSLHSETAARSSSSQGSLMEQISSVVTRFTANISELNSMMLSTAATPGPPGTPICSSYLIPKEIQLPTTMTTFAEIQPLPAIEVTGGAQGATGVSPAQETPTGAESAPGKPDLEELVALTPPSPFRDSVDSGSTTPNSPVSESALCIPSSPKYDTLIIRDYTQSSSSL

In the case of `N#Cc1cc(F)cc(-n2cc(C#Cc3ccccn3)c(OC(F)F)n2)c1` [Compound 47, 3-(3-(difluoromethoxy)-4-(pyridin-2-ylethynyl)-1H-pyrazol-1-yl)-5-fluorobenzonitrile], under setting [1], the half-maximal inhibitory concentration (IC50) is at most 500 nM.
Same read-out and setting: next, `N#Cc1cc(F)cc(-n2cc(C#Cc3ccccn3)c(OCCO)n2)c1` [Compound 48, 3-fluoro-5-(3-(2-hydroxyethoxy)-4-(pyridin-2-ylethynyl)-1H-pyrazol-1-yl)benzonitrile]: at most 500 nM; `Fc1ccc(-n2cc(C#Cc3ccccn3)c(Cl)n2)nc1` [Compound 49, 2-(3-chloro-4-(pyridin-2-ylethynyl)-1H-pyrazol-1-yl)-5-fluoropyridine]: at most 500 nM.
Same read-out and setting: the same measure for `Cc1c(C#Cc2ccccn2)cnn1-c1cc(F)cc(C#N)c1` [Compound 50, 3-fluoro-5-(5-methyl-4-(pyridin-2-ylethynyl)-1H-pyrazol-1-yl) benzonitrile]: at most 500 nM; for `COc1c(C#Cc2ccccn2)cnn1-c1ccc(F)cc1` [Compound 51, 2-((1-(4-fluorophenyl)-5-methoxy-1H-pyrazol-4-yl)ethynyl)pyridine]: at most 500 nM; for `COc1nn(-c2ccc(F)cc2)cc1C#Cc1ccccn1` [Compound 52, 2-((1-(4-fluorophenyl)-3-methoxy-1H-pyrazol-4-yl)ethynyl)pyridine]: at most 500 nM.
Same read-out and setting: the same measure for `CN(C)CCOc1nn(-c2cc(F)cc(C#N)c2)cc1C#Cc1ccccn1` [Compound 53, 3-(3-(2-(dimethylamino)ethoxy)-4-(pyridin-2-ylethynyl)-1H-pyrazol-1-yl)-5-fluorobenzonitrile]: 1000 to 5000 nM.
Take `N#Cc1cc(F)cc(-n2cc(C#Cc3ccccn3)c(C3CC3)n2)c1` [Compound 54, 3-(3-cyclopropyl-4-(pyridin-2-ylethynyl)-1H-pyrazol-1-yl)-5-fluorobenzonitrile]: the IC50 under setting [1] was at most 500 nM.
Same read-out and setting: the same measure for `N#Cc1cc(F)cc(-n2cc(C#Cc3ncccn3)c(C3CC3)n2)c1` [Compound 55, 3-(3-cyclopropyl-4-(pyrimidin-2-ylethynyl)-1H-pyrazol-1-yl)-5-fluorobenzonitrile]: at most 500 nM; for `COCCOc1c(C#Cc2ccccn2)cnn1-c1ccc(F)cc1` [Compound 56]: at most 500 nM; for `CS(=O)(=O)c1ccc(-n2cc(C#Cc3ccccn3)c(Cl)n2)cc1` [Compound 58, 2-((3-chloro-1-(4-(methylsulfonyl)phenyl)-1H-pyrazol-4-yl)ethynyl)pyridine]: 1000 to 5000 nM.
As for `Cc1cn(-c2cc(F)cc(C#N)c2)nc1C#Cc1ccccn1` [Compound 59, 3-fluoro-5-(4-methyl-3-(pyridin-2-ylethynyl)-1H-pyrazol-1-yl) benzonitrile], the 50% inhibitory concentration (IC50) under setting [2] is at most 500 nM.
On the same count and under the same terms, next, `Cc1cn(-c2cc(F)cc(C#N)c2)nc1C#Cc1ncccn1` [Compound 60, 3-fluoro-5-(4-methyl-3-(pyrimidin-2-ylethynyl)-1H-pyrazol-1-yl) benzonitrile]: at most 500 nM.
Still for that read-out and setting: the same measure for `N#Cc1cc(F)cc(-n2cc(Cl)c(C#Cc3ccccn3)n2)c1` [Compound 61, 3-(4-chloro-3-(pyridin-2-ylethynyl)-1H-pyrazol-1-yl)-5-fluorobenzonitrile]: at most 500 nM.
`COc1c(C#Cc2ccccn2)cnn1-c1ccc(F)cn1` [Compound 62, 5-fluoro-2-(5-methoxy-4-(pyridin-2-ylethynyl)-1H-pyrazol-1-yl)]: the 50% inhibitory concentration (IC50) under setting [1] was at most 500 nM.
Same read-out and setting: next, `Cc1nn(-c2ccc(F)cn2)cc1C#Cc1ccccn1` [Compound 63, 5-fluoro-2-(3-methyl-4-(pyridin-2-ylethynyl)-1H-pyrazol-1-yl)]: at most 500 nM; `COCCOc1nn(-c2ccc(F)cn2)cc1C#Cc1ccccn1` [Compound 64, S-fluoro-2-(3-(2-methoxyethoxy)-4-(pyridin-2-ylethynyl)-1H-pyrazol-1-yl)pyridine]: 500 to 1000 nM.
Same read-out and setting: next, `FC(F)(F)Oc1ccc(-n2cc(C#Cc3cnccn3)cn2)cc1` [Compound 65, 2-((1-(4-(trifluoromethoxy)phenyl)-1H-pyrazol-4-yl)ethyny)pyrazine]: 1000 to 5000 nM.
Consider `Fc1ccc(-n2ccc(C#Cc3ccccn3)n2)nc1` [Compound 67, 5-fluoro-2-(3-(pyridin-2-ylethynyl)-1H-pyrazol-1-yl)pyridine], for which the IC50 under setting [2] is at most 500 nM.
Turning to `Fc1ccc(-n2cc(C#Cc3ccccn3)c(OC(F)F)n2)nc1` [Compound 68, 2-(3-(difluoromethoxy)-4-(pyridin-2-ylethynyl)-1H-pyrazol-1-yl)-5-fluoropyridine], the IC50 under setting [1] is at most 500 nM.
With `Fc1ccc(-n2cc(Cl)c(C#Cc3ccccn3)n2)nc1` [Compound 69, 2-(4-chloro-3-(pyridin-2-ylethynyl)-1H-pyrazol-1-yl)-5-fluoropyridine], the concentration for half-maximal inhibition (IC50) under setting [2] fell in the range of 500 to 1000 nM.
As for `Fc1cncc(-n2ccc(C#Cc3ccccn3)n2)c1` [Compound 70, 3-fluoro-5-(3-(pyridin-2-ylethnyl)-1H-pyrazol-1-yl)pyridine], the IC50 under setting [2] is at most 500 nM.
Same read-out and setting: the same measure for `C(#Cc1ccn(-c2ccccn2)n1)c1ccccn1` [Compound 71, 2-((1-(pyridin-2-yl)-1H-pyrazol-3-yl)ethynyl)pyridine]: at most 500 nM.
On the same count and under the same terms, next, `Cc1cn(-c2ccc(F)cn2)nc1C#Cc1ccccn1` [Compound 72, 5-fluoro-2-(4-methyl-3-(pyridin-2-ylethynyl)-1H-pyrazol-1-yl) pyridine]: 500 to 1000 nM.
On the same count and under the same terms, the same measure for `Cc1cc(C#Cc2ccccn2)nn1-c1ccc(F)cn1` [Compound 73, 5-fluoro-2-(5-methyl-3-(pyridin-2-ylethynyl)-1H-pyrazol-1-yl)]: at most 500 nM.
Regarding `N#Cc1cc(F)cc(-n2cc(C#Cc3ccccc3)cn2)c1` [Compound 74, 3-fluoro-5-(4-(phenylethynyl)-H-pyrazol-1-yl)benzonitrile], the concentration for half-maximal inhibition (IC50) under setting [1] lay within 1000 to 5000 nM.
Same read-out and setting: the same measure for `N#Cc1cc(F)cc(-n2cc(C#Cc3ccccn3)cn2)c1` [Compound 75, 3-fluoro-5-(4-(pyridin-2-ylethynyl)-1H-pyrazol-1-yl)benzonitrile]: at most 500 nM; for `N#Cc1cc(F)cc(-n2cc(C#Cc3cccnc3)cn2)c1` [Compound 76, 3-fluoro-5-(4-(pyridin-3-ylethynyl)-1H-pyrazol-1-yl)benzonitrile]: 1000 to 5000 nM; for `N#Cc1cc(F)cc(-n2cc(C#Cc3cccc(Cl)c3)cn2)c1` [Compound 77, 3-fluoro-5-(4-(3-chloro-phenylethynyl)-1H-pyrazol-1-yl) benzonitrile]: 500 to 1000 nM.
On the same count and under the same terms, the same measure for `N#Cc1cc(F)cc(-n2cc(C#Cc3ncccn3)cn2)c1` [Compound 78, 3-fluoro-5-(4-(pyrimidin-2-ylethynyl)-1H-pyrazol-1-yl) benzonitrile]: at most 500 nM; for `N#Cc1cc(F)cc(-n2cc(C#Cc3ccncc3)cn2)c1` [Compound 79, 3-fluoro-5-(4-(pyridin-4-ylethynyl)-1H-pyrazol-1-yl)benzonitrile]: at most 500 nM.
As for `N#Cc1cc(F)cc(-n2cc(C#Cc3cnccn3)cn2)c1` [Compound 80, 3-fluoro-5-(4-(pyrazin-2-ylethynyl)-1H-pyrazol-1-yl)benzonitrile], the IC50 under setting [1] was 1000 to 5000 nM.
`Fc1ccc(-n2cc(C#Cc3ccccc3)cn2)cc1` [Compound 81, 1-(4-fluorophenyl)-4-(phenylethynyl)-1H-pyrazole]: the concentration for half-maximal inhibition (IC50) under setting [1] is at most 500 nM.
As to `Fc1ccc(-n2cc(C#Cc3ccccn3)cn2)cc1` [Compound 82, 2-((1-(4-fluorophenyl)-1H-pyrazol-4-yl)ethynyl)pyridine], the IC50 under setting [1] is at most 500 nM.
